Tested on: ventricular contractile force
Test: Ventricular contractile force in anesthetized open-chest dogs (strain gauge on left ventricle), i.v. injection into left saphenous vein
Format: in vivo
Details: for ED (30% increase): Canis lupus familiaris, iv, male dogs, anesthetized, injected into left saphenous vein, read-out: Dose which induces about 30% increase in the ventricular contractile force; for t 1/2: period of time in decreasing the cardiac contractile force to 50% of its maximum value: male dogs 11 to 13 kg, sodium pentobarbital anesthesia, i.v., dose inducing about 30% increase in ventricular contractile force, ± S.E.
Experimental: Male dogs weighing about 11 to 13 kg were anesthetized with sodium pentobarbital (30 mg/kg, i.v.). Under artificial respiration, the heart was exposed by thoractomy, and a calibrated strain gauge was attached to the wall of the left ventricle for oscillographical measurement of the ventricular contractile force. The heart rate was recorded by cardiotachography, triggered by arterial pulse. A test compound was injected into the left saphenous vein at a dose which induces about 30% increase in the ventricular contractile force.
*:Period of time in decreasing the cardiac contractile force to 50% of it

| SMILES | ED (30% increase) | t 1/2: period of time in decreasing the cardiac contractile force to 50% of its maximum value |
| --- | --- | --- |
| COc1ccc(CCNCC(O)c2ccc(OC(=O)c3ccccc3)cc2)cc1OC (stereo not drawn) [α-(3,4-dimethoxyphenethylaminomethyl)-4-benzoyloxybenzylalcohol] | 0.039 mg/kg | 24.22 ± 0.717 min |
| COc1ccc(CCNCC(O)c2ccc(OC(=O)c3ccc(C)cc3)cc2)cc1OC (stereo not drawn) [α-(3,4-dimethoxyphenethylaminomethyl)-4-p-toluoyloxybenzylalcohol] | 0.04 mg/kg | 24.92 ± 0.417 min |
| COc1ccc(CCNCC(O)c2ccc(OC(=O)C(C)(C)C)cc2)cc1OC (stereo not drawn) [α-(3,4-dimethoxyphenethylaminomethyl)-4-pivaloyloxybenzylalcohol] | 0.037 mg/kg | 20.53 ± 1.18 min |

From US4324800A, “Novel benzylalcohol derivatives and processes for preparing same” (Tanabe Seiyaku Co., Ltd., priority 1980, dated 1982)
